The nature of series [1]: xn = mol fraction of the nth substance listed. The note with it: 101.3 kPa, Liquid, x1 = 1.
The conditions of series [2]: 101.3 kPa, Liquid.

SMILES strings stand for the structures. Numbers after ± are expanded uncertainties.

By mass density is commonly meant the mass of a sample divided by its volume. Broadly, the speed of sound is the propagation velocity of pressure waves in the medium. Usually viscosity stands for the resistance of a fluid to flow.

Regarding `CCC(C)O` (stereo not drawn) [butan-2-ol] + CCCCCCCCCC, in series [1] (293.15 K), the mass density is on record as 806.8 ± 0.3 kg/m3, the speed of sound is recorded as 1230 ± 2 m/s and the viscosity was 3.623 ± 0.058 mPa·s. In series [1] (298.15 K), the mass density is on record as 802.7 ± 0.3 kg/m3, the speed of sound is reported as 1212 ± 2 m/s and the viscosity is 2.995 ± 0.049 mPa·s. Further, in series [1] (303.15 K), the mass density worked out at 798.5 ± 0.3 kg/m3, the speed of sound was 1194 ± 2 m/s and the viscosity is recorded as 2.493 ± 0.042 mPa·s.
In the case of `CCCCCCCCCC` [decane], the mass density was 729.9 ± 0.5 kg/m3 in series [2] (293.15 K), 726.1 ± 0.5 kg/m3 in series [2] (298.15 K) and 722.3 ± 0.5 kg/m3 in series [2] (303.15 K). Also, the figures for the speed of sound in series [2] (293.15 K), in series [2] (298.15 K) and in series [2] (303.15 K) were 1254 ± 2 m/s, 1235 ± 2 m/s and 1215 ± 2 m/s, respectively. In addition, the values for the viscosity in series [2] (293.15 K), in series [2] (298.15 K) and in series [2] (303.15 K) were 0.911 ± 0.015 mPa·s, 0.845 ± 0.014 mPa·s and 0.787 ± 0.013 mPa·s, respectively.

Values taken from the NIST ThermoML archive (doi:10.1016/j.jct.2003.12.005).
